Values of other authors in patent US20220160704A2, “COMPOSITIONS FOR OPIATE AND OPIOID PREVENTION AND REVERSAL, AND METHODS OF THEIR USE” (Torralva Medical Therapeutics LLC, priority 2018, published 2022).
Structures can show the parent of a compound that is named as a salt. Where two headings read alike, the source gives them in different places.

Key:
[1] = cited from earlier work
[2] = cited from earlier work; remark: listed apart in the source
[3] = in vivo; cited from earlier work
[4] = 25° C.; cited from earlier work
[5] = cited from earlier work; remark: listed apart in the source
[6] = cited from earlier work; remark: listed apart in the source
[7] = cited from earlier work; remark: listed apart in the source
[8] = cited from earlier work; remark: listed apart in the source
[9] = subcutaneous injection of 10 mg; cited from earlier work
[10] = biological target: T1, α-1 1A subtype (Homo sapiens, UniProt P35348); details: greater than Prazosin; cited from earlier work
T1 sequence (P35348 1-466): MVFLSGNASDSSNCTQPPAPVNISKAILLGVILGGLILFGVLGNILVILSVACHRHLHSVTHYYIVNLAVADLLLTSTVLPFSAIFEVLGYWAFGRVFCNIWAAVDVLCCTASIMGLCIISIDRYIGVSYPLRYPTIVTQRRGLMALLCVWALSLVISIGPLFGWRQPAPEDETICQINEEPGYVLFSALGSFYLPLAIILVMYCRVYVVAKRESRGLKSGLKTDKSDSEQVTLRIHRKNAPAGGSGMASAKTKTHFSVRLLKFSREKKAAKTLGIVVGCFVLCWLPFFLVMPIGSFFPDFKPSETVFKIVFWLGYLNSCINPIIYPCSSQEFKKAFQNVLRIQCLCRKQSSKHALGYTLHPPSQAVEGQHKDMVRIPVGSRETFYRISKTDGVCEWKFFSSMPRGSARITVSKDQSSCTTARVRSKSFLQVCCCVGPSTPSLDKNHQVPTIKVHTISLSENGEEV

[11] = pH 7.4; cited from earlier work

In the case of O=C1CC[C@@]2(O)[C@H]3Cc4ccc(O)c5c4[C@@]2(CCN3CC2CC2)[C@H]1O5 [Naltrexone base anhydrous, morphinan-6-one, 17 (cyclopropylmethyl) 4,5-epoxy3,14-dihydroxy-(5a)], the “Solubility in ethanol / alcohol” value [1] is listed as “soluble” and the Solubility in water [1] is listed as “insoluble”.
In the case of CNC(C)C(O)c1ccccc1 (stereo not drawn) [Ephedrine, benzenemethanol α-[1-(methylamino)ethyl]-sulfate (2:1) (salt)], the Light stability ([2]; exposure to light) is listed as “darkens on exposure to light”.
In the case of CN1CCC[C@H]1c1cccnc1 [Nicotine], the Miscibility with water ([1]; base form) is listed as “miscible with water in its base form between 60 °C and 210 °C”, the “Crossing of the blood brain barrier” value [3] is listed as “crosses the blood-brain barrier” and the Vapor pressure [4] is listed as 5.5 Pa. The “Time to reach the brain” value ([5]; after inhalation) was 10 to 20 s and the Route of excretion ([5]; in vivo) was “primarily excreted in urine”.
In the case of COc1cc2nc(N3CCN(C(=O)C4COc5ccccc5O4)CC3)nc(N)c2cc1OC (centres unmarked) [DOXAZOSIN, 1-(4-amino-6,7-dimethoxy-2-quinazolinyl)-4-(1,4benzodioxan-2-ylcarbonyl) piperazine methanesulfonate], the Solubility in acetone ([1]; acetone) is listed as “very slightly soluble”, the “Solubility in dichloromethane / methylene chloride” value [1] is listed as “very slightly soluble” and the Solubility in dimethylformamide ([1]; dimethylformamide) is listed as “soluble”. The Solubility in dimethylsulfoxide ([1]; dimethylsulfoxide) was “freely soluble”, the “Solubility in ethanol / alcohol” value [1] was “slightly soluble” and the Solubility in methanol ([1]; methanol) was “slightly soluble”. For the same compound, the Solubility in water ([1]; 25° C.) was 0.8%, the Solubility in water [1] was “slightly soluble” and the “Half-life (in words)” value ([5]; in vivo) was “long half-life”.
For COc1cc2nc(N(C)CCCNC(=O)C3CCCO3)nc(N)c2cc1OC.Cl (racemic) [ALFUZOSIN, (R,S)—N-[3-[(4-amino-6,7-dimethoxy-2-quinazolinyl)methylamino]propyl]tetrahydro-2-furancarboxamide hydrochloride], the “Solubility in dichloromethane / methylene chloride” value [1] is given as “practically insoluble”, the “Solubility in ethanol / alcohol” value [1] is given as “sparingly soluble” and the Solubility in water [1] is given as “freely soluble”. The Dizziness ([6]; human, in vivo) was 6%, the Hypotension ([6]; human, in vivo) was 0.4% and the Syncope ([6]; human, in vivo) was 0.2%.
For C[C@H](Cc1cc2c(c(C(N)=O)c1)N(CCCO)CC2)NCCOc1ccccc1OCC(F)(F)F [SILODOSIN], the “Solubility in ethanol / alcohol” value [1] is given as “freely soluble”, the “Solubility in acetic acid” value ([1]; glacial acetic acid / acetic acid) is given as “very soluble” and the Solubility in water [1] is given as “very slightly soluble”. For the same compound, the “Dizziness and orthostatic hypotension” value ([6]; 8 mg QD, study of 897 subjects) was 3% and the “Syncope, subjects affected / subjects” value ([6]; 8 mg QD, study of 897 subjects) was 1/897.
In the case of C[N+](C)(C)CCOC(=O)CCC(=O)OCC[N+](C)(C)C [Succinylcholine], the “Storage stability of solutions” value ([2]; refrigeration) is listed as “lose potency unless refrigerated”, the “Persistence of maximum blockade” value ([7]; 0.3-1.1 mg/kg) is listed as “about 2 minutes” and the “Time to recovery after maximum blockade” value ([7]; 0.3-1.1 mg/kg) is listed as 4 to 6 min. For the same compound, the “Time until neuromuscular blockade develops” value ([7]; 0.3-1.1 mg/kg) was “about 1 minute”, the “Onset of effect given intramuscularly” value ([7]; intramuscular, up to 3 to 4 mg/kg) was 2 to 3 min and the Bradycardia ([8]; human, in vivo) was “bradycardia is common in pediatric patients after an initial dose of 1.5 mg/kg”.
In the case of CC[C@@H]1C(=O)OC[C@@H]1Cc1cncn1C [pilocarpine HCl], the Salivation [9] is given as 1 L.
For CCOc1ccccc1OCCN[C@H](C)Cc1ccc(OC)c(S(N)(=O)=O)c1.Cl [Tamsulosin hydrochloride, (−)-(R)-5-[2-[[2-(o-Ethoxyphenoxy)ethyl]amino]propyl]-2-methoxybenzenesulfon-amide, monohydrochloride], the “Crossing of the blood brain barrier” value [3] is given as “ability to cross the blood brain barrier”, the “Incidence of hypotension, syncope, vertigo” value ([6]; Dose 0.4-0.8 mg QD) is given as 0.2%-0.6% and the “Half-life (in words)” value ([5]; in vivo) is given as “long half-life”. For the same compound, the “Binding affinity at the 1A subtype over other α-1 antagonists” value [10] was 12-30 times.
For COc1cc2nc(N3CCN(C(=O)c4ccco4)CC3)nc(N)c2cc1OC.Cl [PRAZOSIN, 1-(4-amino-6,7-dimethoxy-2-quiazolinyl)-4-(2-furoyl) piperazine], the “Solubility in isotonic saline” value [1] is listed as “slightly soluble”, the Solubility in water [1] is listed as “slightly soluble” and the “Crossing of the blood brain barrier” value [3] is listed as “ability to cross the blood brain barrier”. The “Syncope and symptoms of hypotension, share of subjects” value ([6]; 1 mg BID/TID up to 20 mg total QD) was 6-12%.
For C=CCN1CC[C@]23c4c5ccc(O)c4O[C@H]2C(=O)CC[C@@]3(O)[C@H]1C5.Cl [Naloxone hydrochloride, 17-Allyl-4,5α-epoxy-3,14-dihydroxymorphinan-6-one hydrochloride], the Solubility in chloroform ([1]; chloroform) is given as “practically insoluble”, the “Solubility in dilute acids” value ([1]; dilute acids) is given as “soluble” and the “Solubility in ethanol / alcohol” value [1] is given as “slightly soluble”. The Solubility in ether ([1]; ether / ethyl ether) was “practically insoluble”, the “Solubility in strong alkali” value ([1]; strong alkali) was “soluble” and the Solubility in water [1] was “soluble”.
For CCOC(=O)c1ncn2c1CN(C)C(=O)c1cc(F)ccc1-2 [Flumazenil, ethyl 8-fluoro-5,6-dihydro-5-methyl-6-oxo-4H-imidazo[1,5-a](1,4) benzodiazepine-3-carboxylate], the “Solubility in acidic aqueous solutions” value ([1]; acidic aqueous solutions) is given as “slightly soluble”, the Solubility in water [1] is given as “insoluble” and the “octanol: buffer partition coefficient” value [11] is given as 14 to 1.
For C=CC[N+]1([C@H]2C[C@H]3[C@@H]4CC[C@H]5C[C@H](O)[C@@H](N6CCOCC6)C[C@]5(C)[C@H]4CC[C@]3(C)[C@H]2OC(C)=O)CCCC1.[Br-] [rocuronium bromide, 1-[17β-(acetyloxy)-3α-hydroxy-2β-(4-morpholinyl)-5α-androstan-16β-yl]-1-(2-propenyl)pyrroidinium bromide], the “Time in which most patients have intubation completed” value ([7]; initial dose 0.6 mg/kg) is listed as ≤ 2 min, the “Time to maximum blockade in most patients” value ([7]; initial dose 0.6 mg/kg) is listed as “less than 3 minutes” and the “Time to neuromuscular block sufficient for intubation (80% block or greater), median (range)” value ([7]; initial dose 0.6 mg/kg) is listed as 1 (0.4-6) minute(s).
In the case of COc1cc2nc(N3CCN(C(=O)C4CCCO4)CC3)nc(N)c2cc1OC (racemic) [TERAZOSIN, (RS)-Piperazine, 1-(4-amino-6,7-dimethoxy-2-quinazolinyl)-4-[(tetra-hydro-2-furanyl)carbonyl]-, monohydrochloride, dihydrate], the “Solubility in isotonic saline” value [1] is given as “freely soluble”, the Solubility in water [1] is given as “freely soluble” and the Postural hypotension ([6]; trial of 600 subjects) is given as 4%. For the same compound, the Syncope ([6]; trial subjects) was 0.6% and the “Half-life (in words)” value ([5]; in vivo) was “long half-life”.
In the case of Cl.Clc1cccc(Cl)c1NC1=NCCN1 [Clondine hydrochloride, 2-(2,6-dichlorophenylamino)-2-imidazoline hydrochloride], the “Maximum effective daily dose” value ([8]; oral) is listed as 2.4 mg.
For “1 H,5 H-Tropan-3-ol (±)-tropate [Atropine]”, the “Dose that can produce a paradoxical bradycardia” value ([8]; adults) is listed as “less than 0.5 mg”.
